Results on 22 compounds are retold here after US9464076B2, “Benzothiophene derivative” (Daiichi Sankyo Company, Limited, priority 2013, dated 2016).

pIC50: −log10 of the molar value. Structures can show the parent of a compound that is named as a salt.

One may read the pIC50 as the IC50 on a negative log10 scale, so that one unit is a factor of ten. A low value points to a high IC50. As usually defined, the inhibition in vivo is the change of the read-out against control, counted positive when it falls. By % inhibition is commonly meant the relative decrease from the control value, in per cent. Low readings indicate a response near the control, high ones a response far below the control.

PDE10A, sequence (Q9Y233 whole entry): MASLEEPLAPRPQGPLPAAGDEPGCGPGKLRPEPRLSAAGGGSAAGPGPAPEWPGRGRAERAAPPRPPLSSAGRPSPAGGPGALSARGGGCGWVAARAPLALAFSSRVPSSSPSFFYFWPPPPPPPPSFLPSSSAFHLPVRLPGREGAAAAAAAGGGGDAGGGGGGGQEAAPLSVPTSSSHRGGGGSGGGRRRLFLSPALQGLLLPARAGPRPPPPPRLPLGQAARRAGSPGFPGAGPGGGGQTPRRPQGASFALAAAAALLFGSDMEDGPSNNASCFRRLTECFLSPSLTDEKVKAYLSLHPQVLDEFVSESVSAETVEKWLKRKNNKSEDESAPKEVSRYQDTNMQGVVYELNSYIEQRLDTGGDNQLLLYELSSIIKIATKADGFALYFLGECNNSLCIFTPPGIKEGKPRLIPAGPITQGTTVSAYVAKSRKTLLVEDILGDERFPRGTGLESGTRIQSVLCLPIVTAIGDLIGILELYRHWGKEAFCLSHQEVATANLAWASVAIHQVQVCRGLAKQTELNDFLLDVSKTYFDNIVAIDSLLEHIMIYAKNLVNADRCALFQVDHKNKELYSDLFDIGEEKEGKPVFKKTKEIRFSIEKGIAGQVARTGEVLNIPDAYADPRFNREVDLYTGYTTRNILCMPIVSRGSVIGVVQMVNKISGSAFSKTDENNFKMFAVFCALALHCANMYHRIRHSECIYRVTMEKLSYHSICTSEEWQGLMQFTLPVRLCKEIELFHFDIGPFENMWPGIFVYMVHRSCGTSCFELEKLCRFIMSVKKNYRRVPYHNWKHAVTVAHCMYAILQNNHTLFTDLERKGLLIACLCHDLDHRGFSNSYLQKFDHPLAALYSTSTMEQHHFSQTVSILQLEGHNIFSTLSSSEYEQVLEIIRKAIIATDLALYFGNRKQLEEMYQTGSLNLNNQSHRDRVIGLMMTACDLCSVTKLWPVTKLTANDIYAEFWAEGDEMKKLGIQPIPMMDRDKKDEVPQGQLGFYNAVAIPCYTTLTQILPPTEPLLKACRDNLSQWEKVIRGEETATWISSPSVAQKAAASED

The target of the first assay is PDE10A (Homo sapiens (Human), UniProt Q9Y233). The assay is described as follows: Measurement of PDE10A inhibitory activity-2 (PDE10A fraction prepared from MOLT-4 cells). The format is biochemical. Particulars: PDE10A fraction from MOLT-4 cells (peak around 250 mM NaCl). As for the experimental part:
A human acute lymphoblastic lymphoma T cell line MOLT-4 (which can be purchased under ATCC No. CRL-1582 from ATCC) was cultured in an RPMI1640 medium containing 10% fetal bovine serum to obtain 5×10^8 MOLT-4 cells. The cells were recovered by centrifugation and suspended in 10 ml of buffer solution A (25 mM Tris-HCl, 5 mM 2-mercaptoethanol, 2 mM benzamidine, 2 mM EDTA, and 0.1 mM 4-(2-aminoethyl)benzenesulfonyl hydrochloride, pH 7.5). The cells were homogenized using a Polytron homogenizer and centrifuged (4° C., 25,000 g, 10 minutes). Then, the supernatant was further ultracentrifuged (4° C., 100,000 g, 60 minutes). The obtained supernatant was filtered through a 0.2 μm filter to obtain a soluble fraction.
HiTrap Q HP column (5 ml×2, GE Healthcare Japan Corp.) equilibrated with buffer solution A was charged with the obtained soluble fraction. Phosphodiesterase was eluted with 300 ml of buffer solution A containing a linear gradient solution of 0 to 0.8 M NaCl to recover sixty 5-ml fractions. Each fraction was tested for cAMP-metabolizing phosphodiesterase activity.
On the other hand, total RNA was prepared from Jurkat cells, one type of human T cell, and similarly subjected to RT-PCR. […] Eur J Biochem. 1999, 266 (3), 1118-2 has reported that PDE10A from the rat striatum and testis is eluted as an active peak centered around 250 mM NaCl.
For these reasons, this fraction was used as a solution for the evaluation of PDE10A inhibitory activity. The obtained solution was used to calculate the inhibitory activity (IC50) of a test compound in the same way as in the aforementioned test.
Turning to `COCc1ccc(C(C)=O)c2sc(C(=O)Nc3ccc4c(COC(C)=O)cccc4n3)c(C)c12` [Example 83, (2-(7-Acetyl-4-(methoxymethyl)-3-methylbenzo[b]thiophene-2-carboxamido)quinolin-5-yl)methylacetate], the pIC50 is 9.07.

Take `COCc1ccc(C(C)=O)c2sc(C(=O)Nc3ccc4c(COC(=O)CCC(=O)O)cccc4n3)c(C)c12` [Example 89, 4-((2-(7-Acetyl-4-(methoxymethyl)-3-methylbenzo[b]thiophene-2-carboxamido)quinolin-5-yl)methoxy)-4-oxobutanoic acid]: the pIC50 was 9.43.

Take `COCc1ccc(C(C)=O)c2sc(C(=O)Nc3ccc4c(COC(=O)[C@@H](N)CO)cccc4n3)c(C)c12` [Example 91, (S)-(2-(7-Acetyl-4-(methoxymethyl)-3-methylbenzo[b]thiophene-2-carboxamido)quinolin-5-yl)methyl-2-amino-3-hydroxypropanoate]: the pIC50 is 9.13.

On to `COCc1ccc(C(C)=O)c2sc(C(=O)Nc3ccc4c(C(=O)OC)cccc4n3)c(C)c12` [Example 92, Methyl 2-(7-acetyl-4-(methoxymethyl)-3-methylbenzo[b]thiophene-2-carboxamido)quinoline-5-carboxylate], for which the pIC50 was 7.92.

As for `COCc1ccc(C(C)=O)c2sc(C(=O)Nc3ccc4c(C(=O)O)cccc4n3)c(C)c12` [Example 93, 2-(7-Acetyl-4-(methoxymethyl)-3-methylbenzo[b]thiophene-2-carboxamido)quinoline-5-carboxylic acid], the pIC50 was 9.96.

In turn, `COCc1ccc(C(C)=O)c2sc(C(=O)Nc3ccc4c(C(=O)NN5CCCC5)cccc4n3)c(C)c12` [Example 94, 2-(7-Acetyl-4-(methoxymethyl)-3-methylbenzo[b]thiophene-2-carboxamido)-N-(pyrrolidin-1-yl)quinoline-5-carboxamide] gave a pIC50 of 8.92.

In turn, `COCc1ccc(C(C)=O)c2sc(C(=O)Nc3ccc4c(C(=O)N5CCOCC5)cccc4n3)c(C)c12` [Example 95, 7-Acetyl-4-(methoxymethyl)-3-methyl-N-(5-((morpholin-4-yl)carbonyl)quinolin-2-yl)benzo[b]thiophene-2-carboxamide] gave a negative-log IC50 (pIC50) of 9.32.

`COCc1ccc(C(C)=O)c2sc(C(=O)Nc3ccc4c(C(=O)N5CCC5)cccc4n3)c(C)c12` [Example 98, 7-Acetyl-N-(5-((azetidin-1-yl)carbonyl)quinolin-2-yl)-4-(methoxymethyl)-3-methylbenzo[b]thiophene-2-carboxamide] showed a pIC50 of 9.68.

Turning to `COCc1ccc(C(C)=O)c2sc(C(=O)Nc3ccc4c(C(=O)N5CC(F)C5)cccc4n3)c(C)c12` [Example 99, 7-Acetyl-N-(5-((3-fluoroazetidin-1-yl)carbonyl)quinolin-2-yl)-4-(methoxymethyl)-3-methylbenzo[b]thiophene-2-carboxamide], the pIC50 was 9.96.

`COCc1ccc(C(C)=O)c2sc(C(=O)Nc3ccc4c(C(=O)N5CC(F)(F)C5)cccc4n3)c(C)c12` [Example 100, 7-Acetyl-N-(5-((3,3-difluoroazetidin-1-yl)carbonyl)quinolin-2-yl)-4-(methoxymethyl)-3-methylbenzo[b]thiophene-2-carboxamide] showed a negative logarithm of the IC50 (pIC50) of 9.38.

With `COCc1ccc(C(C)=O)c2sc(C(=O)Nc3ccc4c(C)cccc4n3)c(C)c12` [Example 108, 7-Acetyl-4-(methoxymethyl)-3-methyl-N-(5-methylquinolin-2-yl)benzo[b]thiophene-2-carboxamide], the pIC50 was 8.80.

Compound `COCc1cccc2nc(NC(=O)c3sc4c(C(C)=O)ccc(CO)c4c3C)ccc12` [Example 113, 7-Acetyl-4-(hydroxymethyl)-N-(5-(methoxymethyl)quinolin-2-yl)-3-methylbenzo[b]thiophene-2-carboxamide] gave a pIC50 of 9.92.

As to `CC(=O)c1ccc(CO)c2c(C)c(C(=O)Nc3ccc4c(CO)cccc4n3)sc12` [Example 114, 7-Acetyl-4-(hydroxymethyl)-N-(5-(hydroxymethyl)quinolin-2-yl)-3-methylbenzo[b]thiophene-2-carboxamide], the pIC50 is 8.68.

Consider `COC1CN(C(=O)c2cccc3nc(NC(=O)c4sc5c(C(C)=O)ccc(CO)c5c4C)ccc23)C1` [Example 115, 7-Acetyl-4-(hydroxymethyl)-N-(5-((3-methoxyazetidin-1-yl)carbonyl)quinolin-2-yl)-3-methylbenzo[b]thiophene-2-carboxamide], for which the pIC50 is 9.05.

`[2H]C([2H])([2H])OC1CN(C(=O)c2cccc3nc(NC(=O)c4sc5c(C(C)=O)ccc(COC)c5c4C)ccc23)C1` [Example 122, 7-Acetyl-N-(5-((3-(^2H3)methoxyazetidin-1-yl)carbonyl)quinolin-2-yl)-4-(methoxymethyl)-3-methylbenzo[b]thiophene-2-carboxamide] showed a pIC50 of 9.54.

`[2H]C([2H])([2H])OC1CN(C(=O)c2cccc3nc(NC(=O)c4sc5c(C(C)=O)ccc(C([2H])([2H])OC)c5c4C)ccc23)C1` [Example 123, 7-Acetyl-N-(5-((3-(^2H3)methoxyazetidin-1-yl)carbonyl)quinolin-2-yl)-4-(methoxy(^2H2)methyl)-3-methylbenzo[b]thiophene-2-carboxamide]: the pIC50 is 9.66.

On to `COCc1ccc(C(C)=O)c2sc(C(=O)Nc3cc(CN4CCNCC4)c4ccccc4n3)c(C)c12` [Example 124, 7-Acetyl-4-(methoxymethyl)-3-methyl-N-(4-(piperazin-1-ylmethyl)quinolin-2-yl)benzo[b]thiophene-2-carboxamide], for which the pIC50 is 8.54.

The next assay relates to Male C57BL/6 Cr mice. The assay is described as follows: Test on suppression of phencyclidine-induced hyperlocomotion in mice. The format is in vivo, mouse. Particulars: Mus musculus, po, 1 h, locomotor activity, test compound 10 mg/kg oral, phencyclidine 5 mg/kg s.c. approx. 1 hour later, measured for 1 hour. As for the experimental part:
Male C57BL/6 Cr mice (Japan SLC, Inc.) (8 weeks old) were used in the experiment. A test compound was suspended at 1 mg/mL in a 0.5% hydroxypropylcellulose solution to prepare a suspension for administration. The suspension of the test compound or a solvent (0.5% hydroxypropylcellulose solution) was orally administered at a dose of 10 mL/kg to each mouse. After the administration, the mouse was immediately placed in a locomotor activity measurement apparatus (Muromachi Kikai Co., Ltd., locomotor activity measurement system SUPERMEX). Approximately 1 hour later, phencyclidine (5 mg/10 mL/kg) or a solvent (10 mL/kg saline) was subcutaneously administered to the mouse. The locomotor activity was measured from immediately after the subcutaneous administration to 1 hour later.
Percent inhibition exceeding 100 means that when the activity of the phencyclidine administration control group was defined as 100, the activity of the group given a test compound was lower than that of the solvent administration control group.
Consider `COCc1ccc(C(C)=O)c2sc(C(=O)Nc3ccc4ccccc4n3)c(C)c12` [Example 49, 7-Acetyl-4-(methoxymethyl)-3-methyl-N-(quinolin-2-yl)benzo[b]thiophene-2-carboxamide], for which the inhibition in vivo at 10 mg/kg was found to be 104%.

As to `COCc1ccc(C(C)=O)c2sc(C(=O)Nc3cc(N(C)C)c4ccccc4n3)c(C)c12` [Example 55, 7-Acetyl-N-(4-(dimethylamino)quinolin-2-yl)-4-(methoxymethyl)-3-methylbenzo[b]thiophene-2-carboxamide], the inhibition in vivo at 10 mg/kg turned out to be 127%.

As to `COCc1ccc(C(C)=O)c2sc(C(=O)Nc3ccc4c(CN5CC[C@@H](F)C5)cccc4n3)c(C)c12` [Example 60, (R)-7-Acetyl-N-(5-((3-fluoropyrrolidin-1-yl)methyl)quinolin-2-yl)-4-(methoxymethyl)-3-methylbenzo[b]thiophene-2-carboxamide hydrochloride], the inhibition in vivo at 10 mg/kg is 107%.

On to `COCc1ccc(C(C)=O)c2sc(C(=O)Nc3ccc4c(C(=O)N5CCN(C)CC5)cccc4n3)c(C)c12` [Example 96, 7-Acetyl-4-(methoxymethyl)-3-methyl-N-(5-((4-methylpiperazin-1-yl)carbonyl)quinolin-2-yl)benzo[b]thiophene-2-carboxamide], for which the inhibition in vivo at 10 mg/kg stood at 65%.

Still in this assay, the particulars now being: locomotor activity, test compound 10 mg/kg oral, phencyclidine 5 mg/kg s.c. approx. 1 hour later, measured for 1 hour.
Consider `COCc1ccc(C(C)=O)c2sc(C(=O)Nc3ccc4c(CO)cccc4n3)c(C)c12.Cl` [Example 77, 7-Acetyl-N-(5-(hydroxymethyl)quinolin-2-yl)-4-(methoxymethyl)-3-methylbenzo[b]thiophene-2-carboxamide hydrochloride], for which the “% inhibition” value came to 96%.
